From patent US5856166A, “Streptomyces proteases and methods for improved secretion of recombinantly-expressed proteins” (Cangene Corporation, priority 1994, dated 1999)
“Also recorded” adds a separate entry of the source. Where a SMILES comes first, the peptide text is derived from it. The star is where a group is joined. CH2Cl = ClC*

Columns and labels:
[1] = target: T1, Tap (tripeptidyl aminopeptidase) (Streptomyces lividans, UniProt Q54410); assay: Cleavage of GM-CSF by Tap, native gel electrophoresis; format: biochemical, S. lividans 66
T1 construct: An autolytic tripeptide cleavage removing APA after signal peptide removal would yield the N-terminal found for the secreted protease; made in house; host or cells: Streptomyces lividans 66 (wild-type strain, native secreted enzyme purified from the broth)
T1 sequence (Q54410 40-537): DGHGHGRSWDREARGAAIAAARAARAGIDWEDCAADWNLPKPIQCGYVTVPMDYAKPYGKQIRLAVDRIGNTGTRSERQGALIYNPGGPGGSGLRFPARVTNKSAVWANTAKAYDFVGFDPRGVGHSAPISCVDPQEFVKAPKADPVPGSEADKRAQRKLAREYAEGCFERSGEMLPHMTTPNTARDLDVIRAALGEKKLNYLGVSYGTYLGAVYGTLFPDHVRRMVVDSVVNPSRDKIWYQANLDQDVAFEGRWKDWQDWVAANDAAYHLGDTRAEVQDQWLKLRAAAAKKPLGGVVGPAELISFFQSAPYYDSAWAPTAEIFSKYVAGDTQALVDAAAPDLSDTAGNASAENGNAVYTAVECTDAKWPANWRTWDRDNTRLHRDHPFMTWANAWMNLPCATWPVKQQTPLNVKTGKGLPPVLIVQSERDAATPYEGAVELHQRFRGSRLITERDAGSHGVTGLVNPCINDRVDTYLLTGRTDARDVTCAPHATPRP
Description: The assay was performed as described in Example 7. The Tap concentration in the assays was 5 nM. Lane 1=GM-CSF standard; Lane 2=GM-CSF after digestion with Tap in the absence of APACMK; Lanes 3 and 4=150 uM APACMK; Lanes 5 and 6=15 uM APACMK; Lanes 7 and 8=1.5 uM APACMK; Lanes 9 and 10=150 nM APACMK; Lanes 11 and 12=15 nM APACMK; Lanes 13 and 14=1.5 nM APACMK; Lanes 15 and 16=150 pM APACMK.
To 10 ul of rhGM-CSF (10 ug, Cangene) and 20 ul 20 mM Tris-HCl, pH 8.0, 20 ul of Tap were added. The assays were incubated at 37° C. for 2 hrs. 20 ul of 125 mM Tris-HCl, pH 6.8, 0.1% bromophenol blue in 50% aqueous glycerol were added. Products were separated by native gel electrophoresis at constant current on a 17% polyacrylamide gel by a modification of the method of Davies (Davies, 1964) in which the pH of all buffers was modified with H2 SO4. Products were visualized by staining with Coomassie Blue G-250 (see FIG. 1A).
A stock solution of 10 nM Tap in 20 mM Tris-HCl, pH 8.0 was prepared. Serial dilutions of 210 uM, 21 uM, 2.1 uM, 210 nM, 21 nM, and 2.1 nM APACMK (Example 5) were prepared. To 20 ul Tap, 20 ul of an APACMK dilution (or water for an uninhibited enzyme control) were added and incubated at 22° C. for 30 minutes. 10 ul of GM-CSF (1 ug/ul, Cangene) were added and incubated at 37° C. for 2 hours. Products were analyzed by native gel electrophoresis as described in Example 2.

[2] = target: T1, Tap (tripeptidyl aminopeptidase); assay: Cleavage of IL-3 by Tap after PMSF treatment, isoelectric focusing; format: biochemical, S. lividans 66; settings: Tap preincubated with PMSF 30 minutes at 22° C.; incubation up to 4 hours at 37° C.
Description: Lanes 1-4 show the incubation of IL-3 with TAP-S that has been treated with PMSF. Lane 1=4 hrs; Lane 2=2 hours; Lane 3=1 hr.; Lane 4=0 hours. Lanes 5-8 show the incubation of IL-3 with uninhibited Tap. Lane 5=4 hrs.; Lane 6=2 hrs.; Lane 7=1 hrs.; Lane 8=0 hrs. Lane 9 is a human carbonic anhydrase marker, pI=7.4. Lane 10 contains pI markers. […] The enzyme is not affected by sulfhydryl reagents, chelators or aspartyl protease inhibitors (Table I).
To 50 ul 20 mM Tris-HCl, pH 8.0, 40 ul rhIL-3 (2.5 ug/ul, Cangene) was added followed by 10 ul Tap. The assays were incubated at 37° C.. 25 ul aliquots were withdrawn at the desired time points and frozen on crushed dry ice. The products were separated by isoelectric focusing from pH 3-10 using Pharmalyte 3-10 (Pharmacia) ampholytes (FIG. 4). Products were visualized by staining with Coomassie Blue G-250.
Tap stock (Example 1) was diluted 100-fold with 20 mM Tris-HCl, pH 8.0. A fresh solution of 80 mM PMSF was prepared in isopropanol (iPrOH). A Stock Buffer of 20 mM Tris-HCl, pH 8.0 was prepared. Four preincubations were prepared as follows.
These were incubated at 22° C. for 30 minutes. When the preincubation was complete, 40 ul rhIL-3 (2.5 ug/ul, Cangene) were added and incubation was initiated at 37° C.. […] When the sampling process was complete, the products were analyzed by isoelectric focusing from pH 3-10 (Example 2).

[3] = target: T1, Tap (tripeptidyl aminopeptidase); assay: Inhibition of TAP in the APA-pNA assay (protease inhibitor survey, Table I); format: biochemical, S. lividans 66
Description: The protease and inhibitor were preincubated for 15 minutes at 22° C. Substrate was added and the mixture was incubated at 37° C. Activity was measured by monitoring the change in absorbance at λ=405 nm.
The assay was conducted in a 96 well microtiter plate. To each well in the assay, 50 ul 100 mM Tris-HCl, pH 8.0, were added followed by 25 ul 3.2 mM APA-pNA. 25 ul of Tap were added to the wells and the absorbance was read at 405 nm. The assays were incubated at 37° C. for 2 hours. The absorbance was read at 405 nm. The activity (release of p-nitroaniline) was calculated from the change in absorbance.

S. lividans 66 = assay: Cell growth of S. lividans fermentation in the presence of APACMK; format: cell-based; settings: 10 uM APACMK
Description: (§1) 100 ml of media was inoculated in 500 ml baffle-bottom flasks with 100 ul of S. lividans 66 working seed bank material. The cultures were grown in a New Brunswick gyratory incubator at 32° C. and 240 rpm. The cultures were sampled at 25, 27, 29, 31, and 48 hours post-inoculation and analyzed by native gel electrophoresis (see FIG. 7). Following removal of the 25 hour sample, 100 mM APACMK in sterile water were added to yield a final concentration of 10 uM. A control flask without APACMK was retained.

Tap = target: T2, Tap (Streptomyces lividans, UniProt Q54410); assay: Inhibition of Tap by APACMK during fermentation of S. lividans (GM-CSF(-3) formation); format: cell-based, S. lividans 66; settings: 10 uM APACMK added after 25 hours; sampled to 48 hours
T2 construct: 100 ml of media was inoculated in 500 ml baffle-bottom flasks with 100 ul of S. lividans 66 working seed bank material; endogenous in cells; host or cells: Streptomyces lividans 66
T2 sequence (Q54410 40-537): T1 sequence (Q54410 40-537)
Description: When APACMK and GM-CSF were added to the protease-containing broth from S. lividans fermentations, the formation of the GM-CSF(-3) degradation product was inhibited. Lane 1=Standard containing GM-CSF and GM-CSF(-3). Lanes 2-6 show a fermentation in the presence of 10 uM APACMK. Lane 2=25 hours growth; Lane 3=27 hours growth; Lane 4=29 hours growth; Lane 5=31 hours growth; Lane 6=48 hours growth. Lanes 7-11 show a fermentation without APACMK. Lane 7=25 hours growth; Lane 8=27 hours growth; Lane 9=29 hours growth; Lane 10=31 hours growth; Lane 11=48 hours growth. GM-CSF degradation was analyzed by native gel electrophoresis.
as §1

[4] = target: T1, Tap (tripeptidyl aminopeptidase); assay: Inactivation of Tap by APACMK assayed with APA-pNA, determination of kinetic constants; format: biochemical, S. lividans 66
Description: The concentration of Tap in the inactivations was 1.0 uM. The inactivation and assay were conducted as described in Example 8. In FIG. 6, (O)=2.70 uM APACMK; (Δ)=2.16 uM APACMK; (.quadrature.)=1.73 uM APACMK; (*)=1.38 uM APACMK; (+)=No APACMK.
The methods employed are described in Examples 6, 7, and 8.
A stock solution of 10 nM Tap in 100mM Tris-HCl, pH 8.0 was prepared. Serial dilutions of 210 uM, 21 uM, 2.1 uM, 210 nM, 21 nM, and 2.1 nM APACMK (Example 5) were prepared. To the microtiter well, 25 ul of Tap followed by 25 ul of an APACMK dilution or distilled water, for an uninhibited control, were added. The assays were incubated for 20 minutes at 22° C. 50 ul 1.6 mM APA-pNA were added to each well. The absorbance was read at 405 nm then incubated at 37° C. The change in absorbance at 405 nm was read after 15 and 60 minutes of incubation.
A stock solution of 1.1 uM Tap in 50 mM Tris-HCl, pH 8.0 was prepared. APACMK stock solutions of 11 uM, 13.8 uM, 17.3 uM, 21.7 uM, 27.0 uM, 54.0 uM, 108 uM, and 1.08 mM were prepared. The Substrate Solution was 50 mM Tris-HCl, pH 8.0, 0.8 mM APA-pNA. The inactivation was performed by placing 90 ul of Tap […] in a 1.5 ml Eppendorf tube on ice and adding 10 ul of water (uninhibited control) or 10 ul of APACMK. A 10 ul aliquot was removed immediately and was assayed by adding it to a cuvette containing 390 ul Substrate Solution at 22° C. The initial velocity was obtained from the change in absorbance at 405 nm during the first 10 seconds of the assay. Additional aliquots were removed at time points and assayed by the same method. At APACMK concentrations greater than 5.0 uM in the incubation, it was not possible to remove an aliquot from the incubation before 90% inactivation occurred.

[5] = inactivation of Tap, APA-pNA as substrate

SMILES | effect on cleavage of GM-CSF by Tap [1] | effect on cleavage of IL-3 by Tap [2] | effect on cleavage of APA-pNA by Tap ([3]; Tap treated with PMSF) | Residual Activity ([3]; inhibitor 1.6 mM, preincubated 15 minutes at 22° C., substrate APA-pNA, enzyme only = 100) | cell growth during fermentation (S. lividans 66) | formation of GM-CSF(-3) degradation product in S. lividans fermentation (Tap) | effect on release of p-nitroaniline from APA-pNA by Tap [4] | inhibition at 2.7 µM ([4]; 0.1 h, within 6 minutes at 0° C., inhibitor concentration 2.7 uM, inhibitor/enzyme molar ratio 2.7) [%] | Ki [4, 5] [µM] | kinact [4, 5] [s⁻¹]
O=S(=O)(F)Cc1ccccc1 [PMSF, phenylmethanesulfonyl fluoride] | inhibited | inhibited; also recorded: intact IL-3 is clearly detected after 4 hours | inhibited | 7 | – | – | – | – | – | –
C[C@H](N)C(=O)N1CCC[C@H]1C(=O)N[C@@H](C)C(=O)CCl [APACMK, L-alanyl-L-prolyl-L-alanine chloromethylketone] (H-Ala-Pro-Ala-CH2Cl) | stopped the cleavage of GM-CSF; also recorded: inactivated Tap at very low concentrations | – | – | – | did not significantly retard the rate of cell growth; also recorded: did not inhibit cell growth | prevented cleavage of GM-CSF; also recorded: inhibited; also recorded: significantly reduced formation of GM-CSF(-3) | stopped the release of p-nitroaniline; also recorded: inactivated Tap at very low concentrations | > 99 | 3.3 | 0.00233
